Test [1] addresses T1, SARS-CoV-2 PLpro (nsp3 1564–1878) (Severe acute respiratory syndrome coronavirus 2, UniProt P0DTD1). The test is described as follows: biochemical. Also noted: FRET-quenched peptide (Pro3) cleavage by PLpro, 10 min pre-incubation, slope over 20 min, normalised to no-compound control. The following applies: high concentration screen, read-out: % of control remaining.
In test [2] the target is T1, SARS-CoV-2 PLpro (nsp3 1564–1878). The test is described as follows: biochemical. Set-up: FRET-quenched peptide (Pro3) cleavage by PLpro, 10 min pre-incubation, slope over 20 min, normalised to no-compound control. The following applies: low concentration screen, read-out: % of control remaining.

Structures can show the parent of a compound that is named as a salt. Where two headings read alike, the source gives them in different places.

On to `COc1ccccc1N1CCN(CCCCNC(=O)c2ccc3ccccc3c2)CC1` [BP897], for which the remaining activity at 3.75 µM in test [1] (Well no.=6013) was determined as 98.6%. Further, the remaining activity at 1.25 µM in test [2] (Well no.=6013) was determined as 106%.
Take `CCCCS(=N)(=O)CCC(N)C(=O)O` (racemic) [DL-Buthionine-[S,R]-sulfoximine]: the remaining activity at 3.75 µM in test [1] (Well no.=363) was 93.8%. For the same molecule, the remaining activity at 1.25 µM in test [2] (Well no.=363) is 96.1%.
Consider `CN(C)c1ccc(C2Nc3ccc4ccccc4c3C3=C2C(=O)CC(C)(C)C3)cc1Br` (stereo not drawn) [5-[3-bromo-4-(dimethylamino)phenyl]-2,2-dimethyl-2,3,5,6-tetrahydrobenzo[a]phenanthridin-4(1H)-one], for which the remaining activity at 3.75 µM in test [1] (Well no.=5515) amounted to 106%. The remaining activity at 1.25 µM in test [2] (Well no.=5515) was 106%.
Take `CCC(=O)C(=O)O` [2-Oxobutanoic acid]: in test [1] (Well no.=6293), the remaining activity at 3.75 µM worked out at 105%. The remaining activity at 1.25 µM in test [2] (Well no.=6293) is 106%.
`CC(C)NC[C@@H](O)COc1ccc(CC(N)=O)cc1` [R(+)-Atenolol]: the remaining activity at 3.75 µM in test [1] (Well no.=302) amounted to 94.8%. The remaining activity at 1.25 µM in test [2] (Well no.=302) worked out at 94.7%.
Consider `O=C(O)[C@H]1O[C@@H](Oc2cc3oc(-c4ccccc4)cc(=O)c3c(O)c2O)[C@H](O)[C@@H](O)[C@@H]1O` [Baicalin], for which the remaining activity at 3.75 µM in test [1] (Well no.=5190) came to 100%. Further, the remaining activity at 1.25 µM in test [2] (Well no.=5190) was 101%.
Consider `COc1cc2c(cc1OC)CN(C(=O)[C@@H](NCc1ccncc1)C(C)(C)C)CC2` [TCS-OX2-29], for which the remaining activity at 3.75 µM in test [1] (Well no.=6993) turned out to be 101%. The remaining activity at 1.25 µM in test [2] (Well no.=6993) stood at 107%.
For `CC1=C2C(=CO[C@H](C)[C@H]2C)C(O)=C(C(=O)O)C1=O` [Citrinin], the remaining activity at 3.75 µM in test [1] (Well no.=3171) was determined as 107%. The remaining activity at 1.25 µM in test [2] (Well no.=3171) was 101%.
Take `CC(C)C[C@H](NC(=O)[C@@H](Cc1c[nH]c2ccccc12)NC(=O)[C@H](Cc1ccc(O)cc1)NC(=O)[C@H](CO)NC(=O)[C@H](Cc1c[nH]c2ccccc12)NC(=O)[C@H](Cc1c[nH]cn1)NC(=O)[C@@H]1CCC(=O)N1)C(=O)N[C@@H](CCCNC(=N)N)C(=O)N1CCC[C@H]1C(=O)NCC(N)=O` [Triptorelin]: in test [1] (Well no.=1985), the remaining activity at 3.75 µM worked out at 101%. For the same molecule, the remaining activity at 1.25 µM in test [2] (Well no.=1985) stood at 100%.
Turning to `CO[C@@]1(NC(=O)CSCC#N)C(=O)N2C(C(=O)O)=C(CSc3nnnn3C)CS[C@@H]21` [Cefmetazole sodium], the remaining activity at 3.75 µM in test [1] (Well no.=134) came to 99.6%. In addition, the remaining activity at 1.25 µM in test [2] (Well no.=134) is 101%.
As for `CC(C)[C@@]1(NC(=O)[C@@H]2C=C3c4cccc5[nH]cc(c45)C[C@H]3N(C)C2)O[C@@]2(O)[C@@H]3CCCN3C(=O)[C@H](Cc3ccccc3)N2C1=O` [Ergocristine], in test [1] (Well no.=561), the remaining activity at 3.75 µM was determined as 102%. For the same molecule, the remaining activity at 1.25 µM in test [2] (Well no.=561) is 105%.
With `Nc1nc(Cl)nc2c1ncn2[C@@H]1O[C@H](COP(=O)(O)OP(=O)(O)OP(=O)(O)O)[C@H](O)C1O` (stereo partly drawn) [2-Chloroadenosine triphosphate tetrasodium], the remaining activity at 3.75 µM in test [1] (Well no.=535) worked out at 102%. The remaining activity at 1.25 µM in test [2] (Well no.=535) came out at 100%.
On to `C=CCc1ccccc1OCC(O)CNC(C)C` (stereo not drawn) [Alprenolol hydrochloride], for which the remaining activity at 3.75 µM in test [1] (Well no.=342) is 97.7%. Besides, the remaining activity at 1.25 µM in test [2] (Well no.=342) was determined as 95.5%.
For `O=C1/C(=C/c2ccc(O)cc2)Oc2cc(O)ccc21` [Hispidol], in test [1] (Well no.=6966), the remaining activity at 3.75 µM is 93%. The remaining activity at 1.25 µM in test [2] (Well no.=6966) came to 95.6%.
Consider `COc1cccc(OC)c1OCCNCC1CSc2ccccc2O1` (stereo not drawn) [Benoxathian hydrochloride], for which the remaining activity at 3.75 µM in test [1] (Well no.=323) is 93.6%. Further, the remaining activity at 1.25 µM in test [2] (Well no.=323) turned out to be 99.7%.
Take `CC(=O)NCC(=O)O` [N-Acetylglycine]: in test [1] (Well no.=6779), the remaining activity at 3.75 µM amounted to 96%. The remaining activity at 1.25 µM in test [2] (Well no.=6779) worked out at 96.3%.
For `N=C(N)c1ccccc1` [Benzamidine hydrochloride], in test [1] (Well no.=223), the remaining activity at 3.75 µM turned out to be 99%. Besides, the remaining activity at 1.25 µM in test [2] (Well no.=223) amounted to 99.2%.
Consider `CCN(CC)CCCCNc1ncc2cc(-c3cc(OC)cc(OC)c3)c(NC(=O)NC(C)(C)C)nc2n1` [PD173074], for which the remaining activity at 3.75 µM in test [1] (Well no.=4767) amounted to 108%. Moreover, the remaining activity at 1.25 µM in test [2] (Well no.=4767) turned out to be 104%.

For the origin of these results see article PMC8286840, “Identifying SARS-CoV-2 antiviral compounds by screening for small molecule inhibitors of Nsp3 papain-like protease” (Biochemical Journal, 2021).
